Assay results reported in patent US10981911B2, “Imidazopyrrolopyridine as inhibitors of the JAK family of kinases” (Janssen Pharmaceutica NV, priority 2016, dated 2021).

What was measured:
P-gp (MDR1) = assay: MDCK-MDR1 permeability assay; format: in vitro ADME; conditions: dog; for Papp A→B at 60 min, 5 μM / Papp B→A at 60 min, 5 μM: MDCK-MDR1, pH 7.4, @ 5 μM; for Papp A→B at 60 min, 5 μM: apical to basolateral, without P-gp inhibitor; for Papp B→A at 60 min, 5 μM: basolateral to apical; for efflux ratio at 60 min, 5 μM: MDCK-MDR1, pH 7.4, MDCK-MDR1, 5 μM, read-out: Papp(B-A)/Papp(A-B) (efflux ratio)
Method: Permeability measurements were conducted according to the Cyprotex protocol using the MDCK-MDR1 cell line obtained from the NIH (Rockville, Md., USA). Cells between passage numbers 6-30 were seeded onto a Multiscreen Plate™ (Millipore) at a cell density of 3.4×10^5 cells/cm^2 and cultured for three days before permeability studies were conducted. The cells in this assay form a cohesive sheet of a single cell layer filing the surface area of the culture dish, also known as a confluent monolayer, and on day four the test compound was added to the apical side of the membrane and the transport of the compound across the monolayer was monitored over a time period of 60 min.
Test compounds were dissolved in DMSO at a concentration of 10 mM. The dosing solutions were prepared by diluting test compound with assay buffer (Hanks Balanced Salt Solution), pH 7.4, at a final concentration of 5 μM. For assessment of apical to basolateral (“A-B”) permeability, buffer was removed from the apical compartment and replaced with test compound dosing solution with or without the permeability glycoprotein (“PgP”, “P-gP”, “Pgp” or “P-gp”) inhibitor elacridar (2 μM). For assessment of basolateral to apical (“B-A”) permeability, buffer was removed from the companion plate and replaced with test compound dosing solution. Incubations were carried out in duplicate at 37° C. in an atmosphere of 5% CO2 with a relative humidity of 95%. Each assay included the reference markers propranolol (high permeability) and prazosin (PgP substrate). After incubation for 60 minutes, apical and basolateral samples were diluted and test compounds quantified by LC/MS/MS using an 8-point calibration in the range 0.0039 to 3 μM with appropriate dilution of the samples (receiver dilution factor=1; donor and C0 dilution factor=10). The permeability coefficient (Papp) for each compound was calculated from the following equation: Papp=(dQ/dt)/(C0×S), where dQ/dt is the rate of permeation of the drug across the cells, C0 is the donor compartment concentration at time zero, and S is the area of the cell monolayer.
The second and third columns in Table 7 show the values of Papp(A-B) for the apical-to-basolateral compound transport without (second column) and with a P-gp inhibitor (third column, noted as P^eapp(A-B)) that was elacridar. Papp(A-B) gives an indication of permeation extent across the cells in this assay, which is envisaged to model the transcellular transport across Pgp-expressing cells, such as Pgp-expressing gastrointestinal tract cells. P^eapp(A-B) values (Papp(A-B) in the presence of the P-gp inhibitor) given in column 3 are determined to confirm the role of P-gp in the compound efflux. […] Test compound efflux ratios are given in the fifth column of Table 7 as Papp(B-A)/Papp(A-B) by using the corresponding permeability coefficient values from the fourth and second columns in the same table.

[1] = test system: GM-CSF pSTAT5 (JAK2/JAK2); assay: GM-CSF pSTAT5 (JAK2/JAK2) cellular assay (AlphaLISA, PBMCs); format: cell-based; conditions: PBMC, GM-CSF at 11 pg/mL
Method: The AlphaLISA assay (based on Alpha Technology from PerkinElmer) was performed by first plating freshly thawed PBMCs (Biological Specialty Corporation) in 384-well plates at 30,000 cells per 4 µL per well in HBSS containing 0.1% IgG-free, protease-free BSA (Jackson ImmunoResearch Cat. No. 001-000-161). The cells were then treated with 2 μL/well of compounds diluted in DMSO at half-log titrated concentrations, with a highest test concentration of […] and 0.5% final DMSO concentration, for thirty minutes at 37° C. Next, the cells were stimulated with 2 μL/well of GM-CSF (R&D Systems Cat. No. 215-GM-050) at 11 pg/mL for fifteen minutes at 37° C. The cellular reactions were terminated by the addition of 2 µL/well of lysis buffer (PerkinElmer Cat. No. ALSU-PST5-A10K) followed by an incubation of five minutes at room temperature. 5 μL/well of acceptor mix (PerkinElmer Cat. No. ALSU-PST5-A10K) was added to the cells and incubated in the dark for one hour at room temperature. Then, 5 μL/well of donor mix (PerkinElmer Cat. No. ALSU-PST5-A10K) was added to the cells and incubated in the dark overnight at room temperature. Finally, the plates were read on a PerkinElmer EnVision for detection of the time-resolved fluorescence signal. The percentage of GM-CSF-dependent pSTAT5 inhibition was determined at the compound test concentrations; and for each compound, a dose curve was generated and the IC50 was calculated. Compound IC50 was calculated by nonlinear regression, sigmoidal dose response analysis of the half-log dilution titration curve of the compound concentration vs. Alpha signal. The term “Alpha” is defined in the IL-2 pSTAT5 (JAK1/JAK3) cellular assay description.

CC(C)(O)CNC(=O)Cc1nc2cnc3[nH]ccc3c2n1[C@H]1CC[C@H](CC#N)CC1 [Ex. 1, 2-(1-((1r,4r)-4-(Cyanomethyl)cyclohexyl)-1,6-dihydroimidazo[4,5-d]pyrrolo[2,3-b]pyridin-2-yl)-N-(2-hydroxy-2-methylpropyl)acetamide]
Papp A→B at 60 min, 5 μM (P-gp (MDR1)): < 0.5 ×10⁻⁶ cm/s
Papp B→A at 60 min, 5 μM (P-gp (MDR1)): 0.9 ×10⁻⁶ cm/s
efflux ratio at 60 min, 5 μM (P-gp (MDR1)): > 1.9

N#CCC1CCC(n2c(-c3c[nH]cn3)nc3cnc4[nH]ccc4c32)CC1 (stereo not drawn) [Ex. 2, 2-((1r,4r)-4-(2-(1H-Imidazol-4-yl)imidazo[4,5-d]pyrrolo[2,3-b]pyridin-1(6H)-yl)cyclohexyl)acetonitrile]
IC50 [1]: 61 nM
Papp A→B at 60 min, 5 μM (P-gp (MDR1)): 1.1 ×10⁻⁶ cm/s
Papp B→A at 60 min, 5 μM (P-gp (MDR1)): 4.8 ×10⁻⁶ cm/s
efflux ratio at 60 min, 5 μM (P-gp (MDR1)): 4.4

N#CC[C@H]1CC[C@H](n2c(CC(=O)NCC3CC3)nc3cnc4[nH]ccc4c32)CC1 [Ex. 3, 2-(1-((1r,4r)-4-(Cyanomethyl)cyclohexyl)-1,6-dihydroimidazo[4,5-d]pyrrolo[2,3-b]pyridin-2-yl)-N-(cyclopropylmethyl)acetamide]
IC50 [1]: 21.9 nM
Papp A→B at 60 min, 5 μM (P-gp (MDR1)): < 0.4 ×10⁻⁶ cm/s
Papp B→A at 60 min, 5 μM (P-gp (MDR1)): 17 ×10⁻⁶ cm/s
efflux ratio at 60 min, 5 μM (P-gp (MDR1)): > 41

N#CCCNC(=O)Cc1nc2cnc3[nH]ccc3c2n1[C@H]1CC[C@H](CC#N)CC1 [Ex. 4, N-(2-Cyanoethyl)-2-(1-((1r,4r)-4-(cyanomethyl)cyclohexyl)-1,6-dihydroimidazo[4,5-d]pyrrolo[2,3-b]pyridin-2-yl)acetamide]
IC50 [1]: 119 nM
Papp A→B at 60 min, 5 μM (P-gp (MDR1)): 0.1 ×10⁻⁶ cm/s
Papp B→A at 60 min, 5 μM (P-gp (MDR1)): 1.3 ×10⁻⁶ cm/s
efflux ratio at 60 min, 5 μM (P-gp (MDR1)): 8.7

N#CC[C@H]1CC[C@H](n2c(CC(=O)NC3CCOCC3)nc3cnc4[nH]ccc4c32)CC1 [Ex. 5, 2-(1-((1r,4r)-4-(Cyanomethyl)cyclohexyl)-1,6-dihydroimidazo[4,5-d]pyrrolo[2,3-b]pyridin-2-yl)-N-(tetrahydro-2H-pyran-4-yl)acetamide]
IC50 [1]: 28.9 nM
Papp A→B at 60 min, 5 μM (P-gp (MDR1)): < 0.4 ×10⁻⁶ cm/s
Papp B→A at 60 min, 5 μM (P-gp (MDR1)): 1.8 ×10⁻⁶ cm/s
efflux ratio at 60 min, 5 μM (P-gp (MDR1)): > 4.8

N#CC[C@H]1CC[C@H](n2c(CC(=O)NCC3CCOCC3)nc3cnc4[nH]ccc4c32)CC1 [Ex. 10, 2-(1-((1r,4r)-4-(Cyanomethyl)cyclohexyl)-1,6-dihydroimidazo[4,5-d]pyrrolo[2,3-b]pyridin-2-yl)-N-((tetrahydro-2H-pyran-4-yl)methyl)acetamide]
IC50 [1]: 25.1 nM
Papp A→B at 60 min, 5 μM (P-gp (MDR1)): < 0.3 ×10⁻⁶ cm/s
Papp B→A at 60 min, 5 μM (P-gp (MDR1)): 2.5 ×10⁻⁶ cm/s
efflux ratio at 60 min, 5 μM (P-gp (MDR1)): > 8.4

CC(C)(C#N)CNC(=O)Cc1nc2cnc3[nH]ccc3c2n1[C@H]1CC[C@H](CC#N)CC1 [Ex. 22, N-(2-Cyano-2-methylpropyl)-2-(1-((1r,4r)-4-(cyanomethyl)cyclohexyl)-1,6-dihydroimidazo[4,5-d]pyrrolo[2,3-b]pyridin-2-yl)acetamide]
IC50 [1]: 67.3 nM
Papp A→B at 60 min, 5 μM (P-gp (MDR1)): < 0.4 ×10⁻⁶ cm/s
Papp B→A at 60 min, 5 μM (P-gp (MDR1)): 3.6 ×10⁻⁶ cm/s
efflux ratio at 60 min, 5 μM (P-gp (MDR1)): > 9

N#CC[C@H]1CC[C@H](n2c(CC(=O)NCC3(O)CCC3)nc3cnc4[nH]ccc4c32)CC1 [Ex. 34, 2-(1-((1r,4r)-4-(Cyanomethyl)cyclohexyl)-1,6-dihydroimidazo[4,5-d]pyrrolo[2,3-b]pyridin-2-yl)-N-((1-hydroxycyclobutyl)methyl)acetamide]
IC50 [1]: 33.8 nM
Papp A→B at 60 min, 5 μM (P-gp (MDR1)): 0.1 ×10⁻⁶ cm/s
Papp B→A at 60 min, 5 μM (P-gp (MDR1)): 1.7 ×10⁻⁶ cm/s
efflux ratio at 60 min, 5 μM (P-gp (MDR1)): 11.5

N#CCC12CCC(NC(=O)Cc3nc4cnc5[nH]ccc5c4n3[C@H]3CC[C@H](CC#N)CC3)(CC1)C2 [Ex. 55, N-(4-(Cyanomethyl)bicyclo[2.2.1]heptan-1-yl)-2-(1-((1r,4r)-4-(cyanomethyl)cyclohexyl)-1,6-dihydroimidazo[4,5-d]pyrrolo[2,3-b]pyridin-2-yl)acetamide]
IC50 [1]: 44.6 nM
Papp A→B at 60 min, 5 μM (P-gp (MDR1)): < 0.4 ×10⁻⁶ cm/s
Papp B→A at 60 min, 5 μM (P-gp (MDR1)): 7.1 ×10⁻⁶ cm/s
efflux ratio at 60 min, 5 μM (P-gp (MDR1)): > 16.9

N#CC[C@H]1CC[C@H](n2c(CC(=O)NCC3(O)CC3)nc3cnc4[nH]ccc4c32)CC1 [Ex. 85, 2-(1-((1r,4r)-4-(Cyanomethyl)cyclohexyl)-1,6-dihydroimidazo[4,5-d]pyrrolo[2,3-b]pyridin-2-yl)-N-((1-hydroxycyclopropyl)methyl)acetamide]
IC50 [1]: 75.4 nM
Papp A→B at 60 min, 5 μM (P-gp (MDR1)): < 0.5 ×10⁻⁶ cm/s
Papp B→A at 60 min, 5 μM (P-gp (MDR1)): 1.1 ×10⁻⁶ cm/s
efflux ratio at 60 min, 5 μM (P-gp (MDR1)): > 2.2
